Series [1] relates to HCV replicon (Genotype 1b). Nature of the series: Luciferase genotype 1b replicon potency assay. Type of series: cell-based. The conditions noted are these: Hepatitis C virus, Huh-7; luciferase-reporter genotype 1b subgenomic replicon cell line (Huh7); Renilla luciferase reporter activity. The method, then:
(§1) Further to the above Examples, representative compounds, prepared according to the examples were tested for potency in an HCV replicon assay (Genotype 1b) for activity against the virus (EC50) and toxicity to the cells (CC50).
Huh7 Replicon Cell Lines and Cell Culture Conditions:
(§2) A luciferase-reporter genotype 1b subgenomic replicon cell line, and a genotype 1a full-length replicon cell line were obtained from Apath, LLC, Brooklyn, N.Y.: All cell lines were passaged twice a week by splitting 4 or 6 fold. Cells were maintained in DMEM-high glucose medium (HyClone, Logan, Utah) supplemented with 9% FBS (HyClone), 2 mM glutamine (Invitrogen, Carlsbad, Calif.), 100 U/mL PenStrep (Invitrogen). Media also contained 0.25 mg/mL of the antibiotic G-418 to maintain stable expression of the replicon (Invitrogen). Incubation was performed at 37° C. in 5% CO2 atmosphere. Replicon cell lines were used until they accumulated 15-to-18 passages, after which cells were restarted from the frozen stock. Seeding cell counts were routinely determined using an automatic Cedex HiRes cell counter (Flownomics Analytical Instruments, Madison, Wis.) or manually using INCYTO C—Chip™ Disposable Hemacytometers (Fisher Scientific, Pittsburgh, Pa.).
The anti-HCV assays were done accordingly:
Luciferase Genotype 1b Replicon Potency Assay.
Replicon cells were seeded into white 96-well plates (Nunc/VWR) at a density of 2×10^4 cells/well in medium without G-418. A Stacker Multidrop Liquid Dispenser (MTX Lab Systems, Vienna, Va.) was employed to ensure uniform and fast cell seeding into multiple plates. 18-24 h after cell plating, inhibitors were added and cells were incubated for additional 24, 48, or 72 h (as indicated). Compounds were tested in triplicates and quadruplicates at 3× or 4× serial dilutions over a range of 0.0001-to-10 μM concentrations. HCV replication was monitored by Renilla luciferase reporter activity assay using Renilla luciferase reporter (Promega, Madison, Wis.) and a Veritas Luminometer (Turner Biosystems, Sunnyvale, Calif.). 50% and 90% inhibitory concentration (IC50 and IC90) values were calculated as the concentration of compound that results correspondingly in 50% and 90% decreases in the reporter expression as compared to untreated cells. The values were determined by non-linear regression (four-parameter sigmoidal curve fitting) analysis.

Series [2] is described as follows: Cytotoxicity assay (CellTiter-Glo). The format is cell-based. The conditions noted are these: human, toxicity to the cells, 72 h incubation, CellTiter-Glo cell viability. The method, then:
as §1, §2
The cell cytotoxicity assay data was obtained as described below:
Cells were seeded into 96-well plates at a density of 2×10^4 cells per well. 24 h after cell plating, 11 serial 2× compound dilutions, starting with 100 μM, were applied to the testing plates (3 repeats per compound dilution). Each testing plate was run with a “no-compound” control. Incubation with compounds was continued at 37° C. in a CO2 incubator for 72 h. To determine cell viability, the CellTiter-Glo® assay (Promega, Madison, Wis.) was performed according to the manufacturer's protocol. The compound concentration resulting in 50% luminescent signal was reported as the CC50 concentration.

In turn, `COc1nc(N)nc2c1nc(I)n2[C@@H]1O[C@H](COP(=O)(N[C@@H](CCSC)C(=O)OCc2ccccc2)Oc2cccc3ccccc23)[C@@H](O)[C@@]1(C)O` (stereo partly drawn) [Example 19, (2S)-Benzyl 2-((((2R,3R,4R,5R)-5-(2-Amino-8-iodo-6-methoxy-9H-purin-9-yl)-3,4-dihydroxy-4-methyltetrahydrofuran-2-yl)methoxy)(naphthalen-1-yloxy)phosphorylamino)-4-(methylthio)butanoate] gave an IC50 in series [1] of 0.034 µM. For the same compound, the CC50 at 72 h in series [2] was found to be 29 µM.

Turning to `COc1nc(N)nc2c1nc(I)n2[C@@H]1O[C@H](COP(=O)(N[C@@H](C)C(=O)OC2CCCCC2)Oc2cccc3ccccc23)[C@@H](O)[C@@]1(C)O` (stereo partly drawn) [Example 17, (2S)-Cyclohexyl 2-((((2R,3R,4R,5R)-5-(2-Amino-8-iodo-6-methoxy-9H-purin-9-yl)-3,4-dihydroxy-4-methyltetrahydrofuran-2-yl)methoxy)(naphthalen-1-yloxy)phosphorylamino)propanoate], the IC50 in series [1] came out at 0.016 µM. Moreover, the CC50 at 72 h in series [2] was 11 µM.

Compound `COc1nc(N)nc2c1nc(I)n2[C@@H]1O[C@H](COP(=O)(N[C@@H](C)C(=O)OC2CCCC2)Oc2cccc3ccccc23)[C@@H](O)[C@@]1(C)O` (stereo partly drawn) [Example 16, (2S)-Cyclopentyl 2-((((2R,3R,4R,5R)-5-(2-Amino-8-iodo-6-methoxy-9H-purin-9-yl)-3,4-dihydroxy-4-methyltetrahydrofuran-2-yl)methoxy)(naphthalen-1-yloxy)phosphorylamino)propanoate] showed an IC50 in series [1] of 0.012 µM. The CC50 at 72 h in series [2] was found to be 13 µM.

On to `COc1nc(N)nc2c1nc(I)n2[C@@H]1O[C@H](COP(=O)(N[C@@H](C)C(=O)OC2CCOCC2)Oc2cccc3ccccc23)[C@@H](O)[C@@]1(C)O` (stereo partly drawn) [Example 18, (2S)-Tetrahydro-2H-pyran-4-yl 2-((((2R,3R,4R,5R)-5-(2-Amino-8-iodo-6-methoxy-9H-purin-9-yl)-3,4-dihydroxy-4-methyltetrahydrofuran-2-yl)methoxy)(naphthalen-1-yloxy)phosphorylamino)propanoate], for which the IC50 in series [1] worked out at 0.018 µM. The compound further displayed a CC50 at 72 h in series [2] of 26 µM.

Compound `COc1nc(N)nc2c1nc(I)n2[C@@H]1O[C@H](COP(=O)(N[C@@H](C)C(=O)OCc2ccccc2)N[C@@H](C)C(=O)OCc2ccccc2)[C@@H](O)[C@@]1(C)O` [Example 21, (2S,2′S)-Benzyl 2,2′-((((2R,3R,4R,5R)-5-(2-Amino-8-iodo-6-methoxy-9H-purin-9-yl)-3,4-dihydroxy-4-methyltetrahydrofuran-2-yl)methoxy)phosphoryl)bis(azanediyl)dipropanoate] had an IC50 in series [1] of 0.046 µM. In series [2] (Huh7 HCV genotype 1b replicon cells), this compound showed a CC50 at 72 h of 22 µM.

For the compound `CCCCCOC(=O)[C@H](C)NP(=O)(OC[C@H]1O[C@@H](n2c(I)nc3c(OC)nc(N)nc32)[C@](C)(O)[C@@H]1O)Oc1cccc2ccccc12` (stereo partly drawn) [Example 11, (2S)-Pentyl 2-((((2R,3R,4R,5R)-5-(2-Amino-8-iodo-6-methoxy-9H-purin-9-yl)-3,4-dihydroxy-4-methyltetrahydrofuran-2-yl)methoxy)(naphthalen-1-yloxy)phosphorylamino)propanoate], the IC50 in series [1] was 0.012 µM. In series [2], this compound gave a CC50 at 72 h of 11 µM.

Source of the values: US9351989B2, “Substituted purine nucleosides, phosphoroamidate and phosphorodiamidate derivatives for treatment of viral infections” (INHIBITEX, INC., priority 2010, dated 2016).
